Results reported in article PMC10747602, “Dose Response, Dosimetric, and Metabolic Evaluations of Replacement PFAS Perfluoro-(2,5,8-trimethyl-3,6,9-trioxadodecanoic) Acid (HFPO-TeA)” (Toxics, 2023).
Where “and” joins values, the source holds several entries; their conditions need not be identical. Identical values can stand only once. Like-named read-outs stand apart in the source and are kept apart here.

Key:
[1] = Ultracentrifugation plasma protein binding assay, human plasma; format: in vitro ADME; settings: both sexes, human
Method: (§1) Information on the chemicals and materials used in the plasma protein binding work can be found in Supplementary Text S10 and Table S3. Human and rodent plasma were evaluated for plasma protein binding using ultracentrifugation, as previously described. Working solutions of 3 mM of HFPO-DA, HFPO-TA, and HFPO-TeA were prepared separately in ethanol, with each working solution containing 3 mM of testosterone (Sigma-Aldrich; ≥98% pure) as a reference compound for assay performance. An aliquot of each stock solution (13.3 µL) was added to separate 15 mL tubes with 3.987 mL of plasma for a final assay concentration of 10 µM. The plasma solutions were incubated at 37 °C and 125 rpm for 60 min. One-hour stability samples (T60 min) were drawn in triplicate and diluted in four volumes of plasma ultrafiltrate. Aliquots (1 mL) from each plasma solution were drawn in triplicate and transferred to polycarbonate tubing. These samples underwent ultracentrifugation (Beckman OptimaMax; Beckman Coulter Inc., Brea, CA, USA) at 850,000× g for 4 h at 37 °C.
(§2) The remaining plasma solutions were returned for incubation at 37 °C and 125 rpm for an additional 4 h. Five-hour stability samples (T300 min) were then drawn in triplicate and diluted in four volumes of plasma ultrafiltrate. After ultracentrifugation, the aqueous fraction (AF) was collected by transferring the supernatant to a new tube and diluting in an equal volume of plasma for matrix matching. All samples were combined with 3 volumes of ice-cold ACN containing 16 ng/mL of ^13C3-HFPO-DA and 16 ng/mL of ^13C-Testosterone (Cambridge Isotope Laboratories; 98% pure). Samples were vigorously mixed, stored for 10 min at −20 °C, and then centrifuged at 12,000× g for 10 min at 4 °C. Supernatants were collected then stored at −70 °C prior to analysis.
(§3) Fraction unbound (fu) in plasma (fup) and percent stability calculations are detailed in Supplementary Text S10. Hepatic clearance, the fu in blood (fub) (fu in plasma adjusted for blood:plasma partitioning), and renal clearance were used to derive the steady-state concentration (Css) of each compound that will be used for in vitro–in vivo extrapolation (IVIVE). Renal clearance was calculated using the glomerular filtration rate (a species-dependent constant) and the fub. The Css calculation is detailed in Supplementary Text S11.
(§4) The gradient is available in Table S11. […]
(§5) Chemical stability in plasma was assessed
(§6) (F) Percent Stability = T300minutesT60minutes∗100

[2] = test system: Human plasma; test: as above; format: in vitro ADME; settings: 10000 nM; for Average Stability (T5hr/ T1hr): 37 °C; for Aqueous Fraction concentration: after ultracentrifugation; for Aqueous Fraction concentration / Fraction Unbound in plasma (fup) / Stability (T5hr/ T1hr) / Time 1 hr concentration / Time 5 hr concentration: replicates A-C
Method: as §1, §2, §3, §4, §5, §6

[3] = In vitro-in vivo extrapolation (IVIVE) to estimate Css, human; settings: for Css / Css (steady-state concentration, plasma): IVIVE, BW 70 kg; for Css: ID 0.042 mg/kg/hr; for Css (steady-state concentration, plasma): intake dosage 1 mg/kg/day; for fraction unbound: blood, fub=fup/(1-hemocrit ref value), hematocrit 0.45; for Clint: scaled (HPGL 110, Vl 1596 g)
Method: as §3
Linear regression analysis in conjunction […]
cells in the Clint equation. […]
concentration by the T300 min concentration (Equation E). Chemical stability in plasma was assessed […]
(F) Percent Stability = T300minutesT60minutes∗100 […]
blood (fub) of the parent compound. The Clhepatic calculation is shown in the second part of the denominator of Equation G; it is the product of the species dependent liver blood flow constant, the fub of the parent compound, and the experimentally derived intrins ic clearance (s hown in Equation D) divided by the sum these three values. All values used in Equation G are for first order conditions of metabolism in the liver. All calculations, scalars, and species dependent values used to conduct the Css calculation to facilitate in vitro-in vivo extrapolation (IVIVE) are provided Table S19 within the Excel worksheet, the tab […]
Based on the principle of reverse dosimetry, the Css values derived from IVIVE will be u sed as conversion factors to generate AEDs according to Equation H. In this equation, the AED is linearly related to the in vitro concentration and inversely related to the Css. It is only valid for first-order metabolism that is expected at ambient exposure levels.
(H) AED ൮ mgkg൲ = in vitro concentration (µM )

[4] = plasma, 10 µM, ultracentrifugation, read-out: Experimental fup (average fraction unbound in plasma)
[5] = pooled human plasma, 10000 nM, replicates A-C, read-out: Fraction Unbound in plasma (fup)

Structure (SMILES) | fraction unbound at 4 h, 10 µM [1, 4] | fraction unbound at 4 h, 10 µM [1, 5] | Average Stability (T5hr/ T1hr) [2] | Aqueous Fraction concentration [2] | Fraction Unbound in plasma (fup) [2] | Stability (T5hr/ T1hr) [2] | Time 1 hr concentration [2] | Time 5 hr concentration [2] | Clhep (hepatic clearance) [3] | Css [3] | Css (steady-state concentration, plasma) [3] | fraction unbound [3] | Clint [3]
O=C(O)C(F)(OC(F)(F)C(F)(OC(F)(F)C(F)(F)C(F)(F)F)C(F)(F)F)C(F)(F)F (stereo not drawn) [HFPO-TA, perfluoro-(2,5-dimethyl-3,6-dioxanonanoic) acid] | 0.0013 | 0.0013 | 1.0308 | 8.96 nM and 9.6 nM and 15.04 nM | 0.0011 and 0.0015 | 0.7676 and 1.2763 and 1.0484 | 8.7016 µM and 7.0496 µM and 9.7592 µM | 6.6792 µM and 8.9976 µM and 10.232 µM | 0 L/h | 186410 ng/mL | 375.76 µM and 375.7648 µM | 0.0024 | 0 µL/min
O=C(O)C(F)(OC(F)(F)C(F)(OC(F)(F)C(F)(OC(F)(F)C(F)(F)C(F)(F)F)C(F)(F)F)C(F)(F)F)C(F)(F)F (stereo not drawn) [HFPO-TeA, perfluoro-(2,5,8-trimethyl-3,6,9-trioxadodecanoic) acid] | 0.0124 | 0.0121 | 1.0363 | 83.20 nM and 80 nM and 121.60 nM | 0.0109 and 0.0142 | 0.9304 and 0.9406 and 1.2379 | 7.36 µM and 7.808 µM and 6.928 µM | 6.848 µM and 7.344 µM and 8.576 µM | 0 L/h | 19420 ng/mL | 29.34 µM and 29.3351 µM | 0.0226 | 0 µL/min
O=C(O)C(F)(OC(F)(F)C(F)(F)C(F)(F)F)C(F)(F)F (stereo not drawn) [HFPO-DA, perfluoro-2-methyl-3-oxahexanoic acid] | 0.0098 | 0.0099 | 0.9905 | 72.64 nM and 73.60 nM and 65.28 nM | 0.0095 | 0.9836 and 1.1438 and 0.8441 | 7.4664 µM and 6.7536 µM and 7.8224 µM | 7.344 µM and 7.7248 µM and 6.6032 µM | 0 L/h | 24670 ng/mL | 74.75 µM and 74.7454 µM | 0.0178 | 0 µL/min
